Earlier results as cited in paper PMC6156206 (Molecular Imaging, 2018).

Legend:
[1] = tested on: P-gp/BCRP
[2] = phase 1/1b safety profile analysis
[3] = tested on: BRAF^V600E-mutant melanoma xenografts; settings: oral, 30-100 mg/kg, twice daily, without any adverse effects

Compound	Substrate for the drug efflux transporter system P-gp/BCRP [1]	Tolerable dose in patients [2]	Antitumor effect in xenografts [3]
CNC(=O)c1cc(Oc2ccc(NC(=O)Nc3ccc(Cl)c(C(F)(F)F)c3)cc2)ccn1 [sorafenib]	substrate for the drug efflux transporter system P-gp/BCRP		
COc1cc2ncnc(Oc3cccc(NC(=O)Nc4cc(C(C)(C)C(F)(F)F)on4)c3)c2cc1OC.Cl [CEP-32496, 1-(3-(6,7-dimethoxyquinazolin-4-yloxy)phenyl)-3-(5-(1,1,1-trifluoro-2-methylpropan-2-yl)isoxazol-3-yl)urea hydrochloride]		up to 350 mg/d	tumor stasis and regression
